Read-outs that look alike come from different tables or passages of the source.
Columns and labels:
CaMKK1 = molecular target: T1, CaMKK1 (Homo sapiens, UniProt Q8N5S9); test: binding to immobilized V16742 (IVA1/IVA2, HeLa lysate, MS)
T1 construct: endogenous in cells; host or cells: HeLa S3

MAP3K2 = molecular target: T2, MAP3K2 (Homo sapiens, UniProt Q9Y2U5); test: as above
T2 construct: endogenous in cells; host or cells: HeLa S3
T2 sequence (Q9Y2U5 1-619): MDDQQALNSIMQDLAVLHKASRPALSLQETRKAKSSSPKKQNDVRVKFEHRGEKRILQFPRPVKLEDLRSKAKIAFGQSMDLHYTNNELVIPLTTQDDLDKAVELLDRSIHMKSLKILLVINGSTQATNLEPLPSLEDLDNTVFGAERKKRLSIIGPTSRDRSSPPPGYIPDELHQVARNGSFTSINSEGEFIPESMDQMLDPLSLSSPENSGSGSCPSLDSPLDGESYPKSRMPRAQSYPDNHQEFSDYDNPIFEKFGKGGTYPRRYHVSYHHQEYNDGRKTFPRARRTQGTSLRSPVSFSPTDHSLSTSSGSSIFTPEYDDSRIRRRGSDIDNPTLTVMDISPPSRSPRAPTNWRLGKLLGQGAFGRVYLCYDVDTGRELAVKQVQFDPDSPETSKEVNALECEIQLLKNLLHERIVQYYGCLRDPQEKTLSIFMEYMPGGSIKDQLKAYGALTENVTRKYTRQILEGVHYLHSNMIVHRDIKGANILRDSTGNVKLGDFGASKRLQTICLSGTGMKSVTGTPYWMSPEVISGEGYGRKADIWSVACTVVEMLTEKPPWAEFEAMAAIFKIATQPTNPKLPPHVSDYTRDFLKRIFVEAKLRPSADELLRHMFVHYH

DCI (IPI00300567) = molecular target: T3, DCI (IPI00300567) (Homo sapiens, UniProt P42126); test: binding to VI16742 beads (HeLa lysate, SILAC MS)
T3 construct: endogenous in cells; host or cells: HeLa S3
T3 sequence (P42126 42-302): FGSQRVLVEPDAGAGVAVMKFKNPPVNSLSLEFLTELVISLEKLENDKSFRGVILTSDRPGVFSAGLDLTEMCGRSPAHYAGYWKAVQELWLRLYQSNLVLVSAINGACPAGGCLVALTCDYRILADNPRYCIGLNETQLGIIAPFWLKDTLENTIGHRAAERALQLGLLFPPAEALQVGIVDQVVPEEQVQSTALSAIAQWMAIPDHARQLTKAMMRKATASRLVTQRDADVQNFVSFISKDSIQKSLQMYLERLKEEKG
Excerpt: (§1) In an alternative implementation of the chemical proteomic approach according to the invention, the broadly-selective pyrido[2,3-d]pyrimidine-based kinase inhibitor VI16742 has been used for affinity capture (FIG. 10a). […] As shown by gene ontology analysis, the corresponding molecular functions were highly over-represented in proteins specifically retained by the inhibitor resin (FIG. 10b).

[1] = molecular target: T4, HGK/ZC1 (MAP4K4, IPI00604647) (Homo sapiens, UniProt O95819); test: binding to VI16742 beads (HeLa lysate, SILAC MS)
T4 construct: endogenous in cells; host or cells: HeLa S3
T4 sequence (O95819 whole entry): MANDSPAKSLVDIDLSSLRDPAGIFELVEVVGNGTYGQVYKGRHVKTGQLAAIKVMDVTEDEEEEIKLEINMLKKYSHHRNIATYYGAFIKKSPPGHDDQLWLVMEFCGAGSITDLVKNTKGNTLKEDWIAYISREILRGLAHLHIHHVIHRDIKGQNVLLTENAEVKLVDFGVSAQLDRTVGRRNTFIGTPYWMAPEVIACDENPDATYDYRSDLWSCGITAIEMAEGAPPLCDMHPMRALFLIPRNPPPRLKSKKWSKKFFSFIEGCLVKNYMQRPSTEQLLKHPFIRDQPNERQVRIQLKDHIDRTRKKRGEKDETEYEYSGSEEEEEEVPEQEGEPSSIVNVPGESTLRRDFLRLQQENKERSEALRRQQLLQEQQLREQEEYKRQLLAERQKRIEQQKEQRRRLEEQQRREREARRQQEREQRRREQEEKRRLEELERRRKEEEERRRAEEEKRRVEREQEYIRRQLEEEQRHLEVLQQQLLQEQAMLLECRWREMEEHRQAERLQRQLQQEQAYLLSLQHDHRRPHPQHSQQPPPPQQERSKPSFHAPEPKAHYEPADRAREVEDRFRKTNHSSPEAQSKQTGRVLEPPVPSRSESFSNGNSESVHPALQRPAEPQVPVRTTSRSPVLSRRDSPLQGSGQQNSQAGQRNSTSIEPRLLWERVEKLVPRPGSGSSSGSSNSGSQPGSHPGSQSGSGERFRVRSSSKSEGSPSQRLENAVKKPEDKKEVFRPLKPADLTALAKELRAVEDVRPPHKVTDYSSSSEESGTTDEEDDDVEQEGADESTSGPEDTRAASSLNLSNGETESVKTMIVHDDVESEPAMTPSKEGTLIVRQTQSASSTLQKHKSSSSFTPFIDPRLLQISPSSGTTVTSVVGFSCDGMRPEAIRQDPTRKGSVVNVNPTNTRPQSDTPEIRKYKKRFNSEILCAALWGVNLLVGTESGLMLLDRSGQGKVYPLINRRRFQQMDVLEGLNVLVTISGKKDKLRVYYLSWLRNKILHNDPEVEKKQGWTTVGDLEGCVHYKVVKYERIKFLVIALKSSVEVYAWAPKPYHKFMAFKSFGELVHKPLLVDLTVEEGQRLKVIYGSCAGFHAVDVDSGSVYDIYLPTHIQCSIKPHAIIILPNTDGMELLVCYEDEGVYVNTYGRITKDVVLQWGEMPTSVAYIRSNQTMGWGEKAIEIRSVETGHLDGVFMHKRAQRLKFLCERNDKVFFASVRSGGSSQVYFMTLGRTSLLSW
Excerpt: as §1

MASTL (IPI00074258) = molecular target: T5, MASTL (IPI00074258) (Homo sapiens, UniProt Q96GX5); test: binding to VI16742 beads (HeLa lysate, SILAC MS)
T5 construct: endogenous in cells; host or cells: HeLa S3
T5 sequence (Q96GX5 1-879): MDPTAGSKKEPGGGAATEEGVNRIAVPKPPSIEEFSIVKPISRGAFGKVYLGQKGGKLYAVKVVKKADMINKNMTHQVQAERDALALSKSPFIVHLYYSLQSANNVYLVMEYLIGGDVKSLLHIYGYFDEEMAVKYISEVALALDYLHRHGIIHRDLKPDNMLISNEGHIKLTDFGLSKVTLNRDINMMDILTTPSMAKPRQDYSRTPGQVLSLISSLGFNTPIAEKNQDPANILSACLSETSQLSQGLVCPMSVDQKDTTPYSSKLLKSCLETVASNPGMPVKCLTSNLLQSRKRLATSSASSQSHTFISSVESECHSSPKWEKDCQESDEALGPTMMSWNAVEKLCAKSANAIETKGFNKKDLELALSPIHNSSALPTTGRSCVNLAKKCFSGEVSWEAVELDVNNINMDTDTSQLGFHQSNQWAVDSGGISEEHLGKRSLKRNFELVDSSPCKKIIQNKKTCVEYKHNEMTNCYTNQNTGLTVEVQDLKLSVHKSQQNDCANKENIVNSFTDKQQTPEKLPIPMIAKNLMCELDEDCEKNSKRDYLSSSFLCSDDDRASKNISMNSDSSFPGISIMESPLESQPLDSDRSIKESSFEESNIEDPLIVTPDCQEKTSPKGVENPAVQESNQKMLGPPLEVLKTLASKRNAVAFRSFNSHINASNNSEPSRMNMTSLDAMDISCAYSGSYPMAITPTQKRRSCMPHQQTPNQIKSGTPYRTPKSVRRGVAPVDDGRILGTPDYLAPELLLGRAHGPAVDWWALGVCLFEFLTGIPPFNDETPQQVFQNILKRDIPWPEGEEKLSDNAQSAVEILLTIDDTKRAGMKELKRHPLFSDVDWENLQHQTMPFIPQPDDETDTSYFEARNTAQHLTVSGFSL
Excerpt: as §1

[2] = molecular target: T6, OSR1 (OXSR1, IPI00010080) (Homo sapiens, UniProt O95747); test: binding to VI16742 beads (HeLa lysate, SILAC MS)
T6 construct: endogenous in cells; host or cells: HeLa S3
T6 sequence (O95747 whole entry): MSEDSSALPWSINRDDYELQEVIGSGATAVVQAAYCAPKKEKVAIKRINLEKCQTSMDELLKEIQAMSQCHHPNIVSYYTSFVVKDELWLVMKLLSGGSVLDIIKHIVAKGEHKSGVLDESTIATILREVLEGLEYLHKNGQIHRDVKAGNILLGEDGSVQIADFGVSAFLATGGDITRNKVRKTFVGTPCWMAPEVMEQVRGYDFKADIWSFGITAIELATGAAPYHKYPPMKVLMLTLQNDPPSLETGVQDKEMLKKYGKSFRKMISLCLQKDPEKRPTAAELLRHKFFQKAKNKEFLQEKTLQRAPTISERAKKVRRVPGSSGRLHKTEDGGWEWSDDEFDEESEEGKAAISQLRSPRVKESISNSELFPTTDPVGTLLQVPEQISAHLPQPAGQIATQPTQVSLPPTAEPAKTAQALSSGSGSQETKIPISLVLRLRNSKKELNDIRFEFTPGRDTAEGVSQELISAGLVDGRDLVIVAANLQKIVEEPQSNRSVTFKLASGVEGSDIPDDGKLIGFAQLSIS
Excerpt: as §1

PIK3C2A (IPI00002580) = molecular target: T7, PIK3C2A (IPI00002580) (Homo sapiens, UniProt O00443); test: binding to VI16742 beads (HeLa lysate, SILAC MS)
T7 construct: endogenous in cells; host or cells: HeLa S3
T7 sequence (O00443 whole entry): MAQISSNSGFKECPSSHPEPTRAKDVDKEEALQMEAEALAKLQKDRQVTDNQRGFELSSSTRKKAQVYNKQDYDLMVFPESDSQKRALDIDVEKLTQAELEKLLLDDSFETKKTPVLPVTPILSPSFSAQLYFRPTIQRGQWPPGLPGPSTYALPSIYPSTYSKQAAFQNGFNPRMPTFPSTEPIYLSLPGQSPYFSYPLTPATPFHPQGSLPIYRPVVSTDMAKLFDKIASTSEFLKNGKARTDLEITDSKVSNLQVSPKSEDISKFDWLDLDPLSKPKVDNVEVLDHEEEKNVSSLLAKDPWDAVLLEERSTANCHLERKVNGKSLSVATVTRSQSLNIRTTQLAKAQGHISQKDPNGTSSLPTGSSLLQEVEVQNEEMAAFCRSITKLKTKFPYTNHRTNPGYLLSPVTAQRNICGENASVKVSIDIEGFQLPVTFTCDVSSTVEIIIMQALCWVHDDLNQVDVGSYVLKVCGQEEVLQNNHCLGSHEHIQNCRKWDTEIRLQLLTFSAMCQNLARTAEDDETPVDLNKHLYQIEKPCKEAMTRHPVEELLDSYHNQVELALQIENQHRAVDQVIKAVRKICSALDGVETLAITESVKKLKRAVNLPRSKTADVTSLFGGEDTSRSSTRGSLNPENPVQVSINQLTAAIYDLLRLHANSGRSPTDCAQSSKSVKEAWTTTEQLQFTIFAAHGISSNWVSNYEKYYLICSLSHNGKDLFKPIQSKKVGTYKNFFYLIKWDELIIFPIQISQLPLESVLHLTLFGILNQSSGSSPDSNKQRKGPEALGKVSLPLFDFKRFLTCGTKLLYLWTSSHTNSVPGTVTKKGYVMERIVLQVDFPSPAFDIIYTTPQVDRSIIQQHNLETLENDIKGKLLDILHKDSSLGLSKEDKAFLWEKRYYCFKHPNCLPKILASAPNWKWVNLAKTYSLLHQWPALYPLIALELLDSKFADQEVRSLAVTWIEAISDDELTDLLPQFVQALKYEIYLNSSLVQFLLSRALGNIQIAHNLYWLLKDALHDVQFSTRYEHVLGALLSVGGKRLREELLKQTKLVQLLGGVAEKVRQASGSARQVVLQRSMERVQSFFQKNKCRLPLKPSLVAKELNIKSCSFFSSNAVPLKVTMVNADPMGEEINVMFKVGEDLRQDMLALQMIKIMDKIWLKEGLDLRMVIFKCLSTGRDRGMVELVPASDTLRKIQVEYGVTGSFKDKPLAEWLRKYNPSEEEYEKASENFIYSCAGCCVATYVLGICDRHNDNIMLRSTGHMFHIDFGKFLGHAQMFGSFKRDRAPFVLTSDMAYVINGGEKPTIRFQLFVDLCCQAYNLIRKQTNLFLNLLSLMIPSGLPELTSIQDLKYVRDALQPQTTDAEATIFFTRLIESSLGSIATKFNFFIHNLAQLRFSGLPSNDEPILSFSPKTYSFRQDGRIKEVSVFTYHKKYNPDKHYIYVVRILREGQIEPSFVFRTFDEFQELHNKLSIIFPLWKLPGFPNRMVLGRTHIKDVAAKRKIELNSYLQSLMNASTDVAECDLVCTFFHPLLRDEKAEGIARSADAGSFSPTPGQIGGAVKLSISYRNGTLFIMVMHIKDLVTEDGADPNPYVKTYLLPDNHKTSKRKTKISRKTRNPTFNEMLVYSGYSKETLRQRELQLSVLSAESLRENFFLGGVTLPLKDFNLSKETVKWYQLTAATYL
Excerpt: as §1

PKN2 (IPI00002804) = molecular target: T8, PKN2 (IPI00002804) (Homo sapiens, UniProt Q16513); test: binding to VI16742 beads (HeLa lysate, SILAC MS)
T8 construct: endogenous in cells; host or cells: HeLa S3
T8 sequence (Q16513 whole entry): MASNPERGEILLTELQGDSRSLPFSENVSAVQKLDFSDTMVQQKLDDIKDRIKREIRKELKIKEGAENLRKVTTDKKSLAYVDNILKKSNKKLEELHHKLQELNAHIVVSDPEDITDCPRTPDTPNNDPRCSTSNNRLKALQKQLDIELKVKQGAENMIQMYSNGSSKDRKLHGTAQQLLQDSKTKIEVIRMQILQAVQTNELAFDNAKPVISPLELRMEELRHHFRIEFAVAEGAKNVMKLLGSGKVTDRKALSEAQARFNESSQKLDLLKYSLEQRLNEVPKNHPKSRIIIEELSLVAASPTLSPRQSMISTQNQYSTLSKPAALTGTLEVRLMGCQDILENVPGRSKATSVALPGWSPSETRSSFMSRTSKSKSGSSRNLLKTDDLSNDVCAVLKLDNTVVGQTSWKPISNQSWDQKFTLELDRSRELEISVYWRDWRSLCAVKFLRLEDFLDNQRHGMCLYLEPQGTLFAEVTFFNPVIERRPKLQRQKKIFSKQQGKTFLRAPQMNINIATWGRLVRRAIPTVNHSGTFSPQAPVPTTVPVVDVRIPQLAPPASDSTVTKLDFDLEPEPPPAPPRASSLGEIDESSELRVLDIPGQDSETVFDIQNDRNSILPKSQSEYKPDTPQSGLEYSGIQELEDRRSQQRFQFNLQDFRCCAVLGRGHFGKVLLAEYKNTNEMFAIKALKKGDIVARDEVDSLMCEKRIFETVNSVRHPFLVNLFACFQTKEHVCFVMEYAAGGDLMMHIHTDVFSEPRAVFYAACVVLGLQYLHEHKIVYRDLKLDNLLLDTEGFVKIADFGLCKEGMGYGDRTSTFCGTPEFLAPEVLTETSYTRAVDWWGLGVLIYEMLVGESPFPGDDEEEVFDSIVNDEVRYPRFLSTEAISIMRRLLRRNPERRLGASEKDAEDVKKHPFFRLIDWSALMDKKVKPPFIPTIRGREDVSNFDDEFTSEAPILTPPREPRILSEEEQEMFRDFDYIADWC
Excerpt: as §1

[3] = average of two experiments, read-out: Kd Avg
[4] = control beads vs first incubation

T1 sequence (Q8N5S9 whole entry): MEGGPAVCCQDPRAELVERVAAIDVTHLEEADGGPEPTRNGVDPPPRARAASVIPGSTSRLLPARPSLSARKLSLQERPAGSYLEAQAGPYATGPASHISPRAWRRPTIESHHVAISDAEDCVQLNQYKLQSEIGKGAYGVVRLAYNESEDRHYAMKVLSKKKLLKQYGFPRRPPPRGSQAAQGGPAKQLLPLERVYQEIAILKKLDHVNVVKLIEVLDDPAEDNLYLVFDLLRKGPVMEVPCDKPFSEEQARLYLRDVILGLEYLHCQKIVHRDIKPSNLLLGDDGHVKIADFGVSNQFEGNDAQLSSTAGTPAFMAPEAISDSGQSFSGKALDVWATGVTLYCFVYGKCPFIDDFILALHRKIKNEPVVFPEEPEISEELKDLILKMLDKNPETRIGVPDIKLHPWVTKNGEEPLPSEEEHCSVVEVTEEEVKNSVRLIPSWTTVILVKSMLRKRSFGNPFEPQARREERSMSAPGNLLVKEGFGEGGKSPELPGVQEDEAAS

CC(C)n1c(=O)ccc2cnc(Nc3ccc(OCCN)cc3)nc21 [V16742]
Percent bound at various 16742 conc (CaMKK1; Experiment 1, 1.87 μM 16742): 2.08%
Percent bound at various 16742 conc (CaMKK1; Experiment 1, 8.74 μM 16742): 10.67%
Percent bound at various 16742 conc (CaMKK1; Experiment 1, 52 μM 16742): 63.34%
Kd (CaMKK1; Experiment 1, read-out: Kd): 37.9 µM
Percent bound at various 16742 conc (CaMKK1; Experiment 2, 1.87 μM 16742): 1.46%
Percent bound at various 16742 conc (CaMKK1; Experiment 2, 8.74 μM 16742): 6.65%
Percent bound at various 16742 conc (CaMKK1; Experiment 2, 52 μM 16742): 47.32%
Kd (CaMKK1; Experiment 2, read-out: Kd): 63.9 µM
Kd (CaMKK1; [3]): 50.9 µM
Percent bound at various 16742 conc (MAP3K2; Experiment 1, 1.87 μM 16742): 4.06%
Percent bound at various 16742 conc (MAP3K2; Experiment 1, 8.74 μM 16742): 14.72%
Percent bound at various 16742 conc (MAP3K2; Experiment 1, 52 μM 16742): 49.07%
Kd (MAP3K2; Experiment 1, read-out: Kd): 53.2 µM
Percent bound at various 16742 conc (MAP3K2; Experiment 2, 1.87 μM 16742): 3.52%
Percent bound at various 16742 conc (MAP3K2; Experiment 2, 8.74 μM 16742): 14.47%
Percent bound at various 16742 conc (MAP3K2; Experiment 2, 52 μM 16742): 48.40%
Kd (MAP3K2; Experiment 2, read-out: Kd): 54.7 µM
Kd (MAP3K2; [3]): 53.9 µM
r (3 MG/1 MG LYSATE) (DCI (IPI00300567); 3 mg vs 1 mg lysate): 3.25
r (5 h/2.5 h INC. TIME) (DCI (IPI00300567); 5 h vs 2.5 h incubation time): 1.68
rAVERAGE (CTRL/1 INC) (DCI (IPI00300567); [4]): 0.04
Ki (DCI (IPI00300567); immobilized VI16742): 236 µM
rAVERAGE (2 INC/1 INC) (DCI (IPI00300567); second vs first incubation): 0.82
rAVERAGE (CTRL/1 INC) [1, 4]: 0.05
Ki ([1]; immobilized VI16742): 75.7 µM
rAVERAGE (2 INC/1 INC) ([1]; second vs first incubation): 0.59
rAVERAGE (CTRL/1 INC) (MASTL (IPI00074258); [4]): 0.09
Ki (MASTL (IPI00074258); immobilized VI16742): 109 µM
rAVERAGE (2 INC/1 INC) (MASTL (IPI00074258); second vs first incubation): 0.68
rAVERAGE (CTRL/1 INC) [2, 4]: 0.05
Ki ([2]; immobilized VI16742): 207 µM
rAVERAGE (2 INC/1 INC) ([2]; second vs first incubation): 0.80
rAVERAGE (CTRL/1 INC) (PIK3C2A (IPI00002580); [4]): 0.18
Ki (PIK3C2A (IPI00002580); immobilized VI16742): 104 µM
rAVERAGE (2 INC/1 INC) (PIK3C2A (IPI00002580); second vs first incubation): 0.67
r (3 MG/1 MG LYSATE) (PKN2 (IPI00002804); 3 mg vs 1 mg lysate): 2.87
r (5 h/2.5 h INC. TIME) (PKN2 (IPI00002804); 5 h vs 2.5 h incubation time): 1.35
rAVERAGE (CTRL/1 INC) (PKN2 (IPI00002804); [4]): 0.03
Ki (PKN2 (IPI00002804); immobilized VI16742): 115 µM
rAVERAGE (2 INC/1 INC) (PKN2 (IPI00002804); second vs first incubation): 0.69

Source: patent US8959984B2, “Proteome-wide quantification of small molecule binding to cellular target proteins” (priority 2007, dated 2015)
